Data published in PubChem BioAssay (NCI).
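Grown in 96-well plates, cells were treated for 48 hours with each compound at five concentrations. Insufficient inhibition: endpoint recorded as highest concentration tested. At the GI50, growth is halved. Definition used: TGI = concentration required for complete inhibition of growth.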

Tests used:
Assay in all cases: NCI anticancer screen, dose series, 48 h
MDA-MB-231 breast = tested on: MDA-MB-231 breast
T-47D breast = tested on: T-47D breast
COLO 205 colon = tested on: COLO 205 colon
HCC-2998 colon = tested on: HCC-2998 colon
HL-60(TB) leukemia = tested on: HL-60(TB) leukemia
BT-549 breast = tested on: BT-549 breast
MDA-MB-435 = tested on: MDA-MB-435
PC-3 prostate = tested on: PC-3 prostate
EKVX NSCLC = tested on: EKVX NSCLC
MOLT-4 leukemia = tested on: MOLT-4 leukemia
A498 renal = tested on: A498 renal
TK-10 renal = tested on: TK-10 renal
SR leukemia = tested on: SR leukemia
SF-539 CNS = tested on: SF-539 CNS
DU-145 prostate = tested on: DU-145 prostate
OVCAR-4 ovarian = tested on: OVCAR-4 ovarian
HT29 colon = tested on: HT29 colon
HCT-15 colon = tested on: HCT-15 colon
UACC-62 melanoma = tested on: UACC-62 melanoma
ACHN renal = tested on: ACHN renal
HS 578T breast = tested on: HS 578T breast
SN12C renal = tested on: SN12C renal
NCI-H522 lung = tested on: NCI-H522 lung
HOP-92 NSCLC = tested on: HOP-92 NSCLC
RPMI-8226 leukemia = tested on: RPMI-8226 leukemia
SNB-75 CNS = tested on: SNB-75 CNS
786-0 renal = tested on: 786-0 renal
CAKI-1 renal = tested on: CAKI-1 renal
NCI/ADR-RES ovarian = tested on: NCI/ADR-RES ovarian
IGROV1 ovarian = tested on: IGROV1 ovarian
K-562 leukemia = tested on: K-562 leukemia
CCRF-CEM leukemia = tested on: CCRF-CEM leukemia
OVCAR-5 ovarian = tested on: OVCAR-5 ovarian
UACC-257 melanoma = tested on: UACC-257 melanoma
SNB-19 CNS = tested on: SNB-19 CNS
M14 melanoma = tested on: M14 melanoma
U251 CNS = tested on: U251 CNS
SK-MEL-2 melanoma = tested on: SK-MEL-2 melanoma
SK-MEL-28 melanoma = tested on: SK-MEL-28 melanoma
SW-620 colon = tested on: SW-620 colon
A549 NSCLC = tested on: A549 NSCLC
UO-31 renal = tested on: UO-31 renal
KM12 colon = tested on: KM12 colon
NCI-H226 lung = tested on: NCI-H226 lung
SK-OV-3 ovarian = tested on: SK-OV-3 ovarian
NCI-H460 lung = tested on: NCI-H460 lung
SF-295 CNS = tested on: SF-295 CNS
HOP-62 NSCLC = tested on: HOP-62 NSCLC
MALME-3M melanoma = tested on: MALME-3M melanoma
SK-MEL-5 melanoma = tested on: SK-MEL-5 melanoma
RXF 393 renal = tested on: RXF 393 renal
LOX IMVI melanoma = tested on: LOX IMVI melanoma
MCF7 breast = tested on: MCF7 breast
SF-268 CNS = tested on: SF-268 CNS
NCI-H23 lung = tested on: NCI-H23 lung
HCT-116 colon = tested on: HCT-116 colon

CCOP(=O)(OCC)OC[C@]12CCC(C)(C)C=C1[C@H]1CC[C@@H]3[C@@]4(C)CC[C@H](OP(=O)(OCC)OCC)C(C)(C)[C@@H]4CC[C@@]3(C)[C@]1(C)CC2
GI50 (MDA-MB-231 breast): 1410 nM | TGI (MDA-MB-231 breast): 3.04 µM | GI50 (T-47D breast): 1530 nM | TGI (T-47D breast): 3.26 µM | GI50 (COLO 205 colon): 1650 nM | TGI (COLO 205 colon): 3.23 µM | GI50 (HCC-2998 colon): 1390 nM | TGI (HCC-2998 colon): 2920 nM | GI50 (HL-60(TB) leukemia): 611 nM | TGI (HL-60(TB) leukemia): 3.02 µM | GI50 (BT-549 breast): 1460 nM | TGI (BT-549 breast): 2930 nM | GI50 (MDA-MB-435): 1590 nM | TGI (MDA-MB-435): 2990 nM | GI50 (PC-3 prostate): 673 nM | TGI (PC-3 prostate): 2260 nM | GI50 (EKVX NSCLC): 1480 nM | TGI (EKVX NSCLC): 2910 nM | GI50 (MOLT-4 leukemia): 1200 nM | TGI (MOLT-4 leukemia): 3.66 µM | GI50 (A498 renal): 1530 nM | TGI (A498 renal): 2900 nM | GI50 (TK-10 renal): 1580 nM | TGI (TK-10 renal): 2980 nM | GI50 (SR leukemia): 866 nM | TGI (SR leukemia): 5.56 µM | GI50 (SF-539 CNS): 1660 nM | TGI (SF-539 CNS): 3.12 µM | GI50 (DU-145 prostate): 1670 nM | TGI (DU-145 prostate): 3.05 µM | GI50 (OVCAR-4 ovarian): 1910 nM | TGI (OVCAR-4 ovarian): 4.01 µM | GI50 (HT29 colon): 1360 nM | TGI (HT29 colon): 2780 nM | GI50 (HCT-15 colon): 1430 nM | TGI (HCT-15 colon): 2870 nM | GI50 (UACC-62 melanoma): 1110 nM | TGI (UACC-62 melanoma): 2490 nM | GI50 (ACHN renal): 1630 nM | TGI (ACHN renal): 2980 nM | GI50 (HS 578T breast): 1760 nM | TGI (HS 578T breast): 4.22 µM | GI50 (SN12C renal): 1350 nM | TGI (SN12C renal): 2850 nM | GI50 (NCI-H522 lung): 1640 nM | TGI (NCI-H522 lung): 3.16 µM | GI50 (HOP-92 NSCLC): 1160 nM | TGI (HOP-92 NSCLC): 2530 nM | GI50 (RPMI-8226 leukemia): 547 nM | TGI (RPMI-8226 leukemia): 3.43 µM | GI50 (SNB-75 CNS): 1370 nM | TGI (SNB-75 CNS): 2690 nM | GI50 (786-0 renal): 1600 nM | TGI (786-0 renal): 3.08 µM | GI50 (CAKI-1 renal): 970 nM | TGI (CAKI-1 renal): 2180 nM | GI50 (NCI/ADR-RES ovarian): 1570 nM | TGI (NCI/ADR-RES ovarian): 3.29 µM | GI50 (IGROV1 ovarian): 1720 nM | TGI (IGROV1 ovarian): 3.26 µM | GI50 (K-562 leukemia): 388 nM | TGI (K-562 leukemia): 3.13 µM | GI50 (CCRF-CEM leukemia): 2300 nM | TGI (CCRF-CEM leukemia): 8.87 µM | GI50 (OVCAR-5 ovarian): 1480 nM | TGI (OVCAR-5 ovarian): 2860 nM | GI50 (UACC-257 melanoma): 1560 nM | TGI (UACC-257 melanoma): 3.08 µM | GI50 (SNB-19 CNS): 1550 nM | TGI (SNB-19 CNS): 3.04 µM | GI50 (M14 melanoma): 1660 nM | TGI (M14 melanoma): 3.34 µM | GI50 (U251 CNS): 1580 nM | TGI (U251 CNS): 3.17 µM | GI50 (SK-MEL-2 melanoma): 1670 nM | TGI (SK-MEL-2 melanoma): 3.12 µM | GI50 (SK-MEL-28 melanoma): 1540 nM | TGI (SK-MEL-28 melanoma): 2910 nM | GI50 (SW-620 colon): 1640 nM | TGI (SW-620 colon): 3.14 µM | GI50 (A549 NSCLC): 1530 nM | TGI (A549 NSCLC): 3.25 µM | GI50 (UO-31 renal): 1360 nM | TGI (UO-31 renal): 2680 nM | GI50 (KM12 colon): 1560 nM | TGI (KM12 colon): 2930 nM | GI50 (NCI-H226 lung): 1650 nM | TGI (NCI-H226 lung): 3.6 µM | GI50 (SK-OV-3 ovarian): 1530 nM | TGI (SK-OV-3 ovarian): 2960 nM | GI50 (NCI-H460 lung): 1670 nM | TGI (NCI-H460 lung): 3.21 µM | GI50 (SF-295 CNS): 1410 nM | TGI (SF-295 CNS): 2770 nM | GI50 (HOP-62 NSCLC): 1610 nM | TGI (HOP-62 NSCLC): 3.14 µM | GI50 (MALME-3M melanoma): 1540 nM | TGI (MALME-3M melanoma): 2960 nM | GI50 (SK-MEL-5 melanoma): 1680 nM | TGI (SK-MEL-5 melanoma): 3.07 µM | GI50 (RXF 393 renal): 1520 nM | TGI (RXF 393 renal): 3.08 µM | GI50 (LOX IMVI melanoma): 1300 nM | TGI (LOX IMVI melanoma): 2660 nM | GI50 (MCF7 breast): 1480 nM | TGI (MCF7 breast): 3 µM | GI50 (SF-268 CNS): 1550 nM | TGI (SF-268 CNS): 3.02 µM | GI50 (NCI-H23 lung): 1190 nM | TGI (NCI-H23 lung): 2810 nM | GI50 (HCT-116 colon): 1540 nM | TGI (HCT-116 colon): 3.09 µM
